Assay results from ChEMBL document CHEMBL4184096 (Bioorg Med Chem Lett, 2018).

Columns and labels:
hERG (KCNH2) = hERG (KCNH2) (Homo sapiens, UniProt Q12809); experiment: Inhibition of human ERG expressed in HEK293 cells at 30 nM at holding potential of -80 mV by whole cell patch clamp assay relative to control; format: cell-based; conditions: HEK293 cells expressing human ERG
[1] = molecular target: T1, KvLQT1/minK (Kv7.1/minK) potassium channel (Homo sapiens, UniProt P51787+Q8N4C8); experiment: Inhibition of human KvLQT1/minK channel expressed in CHO cells at 1 uM at holding potential of -80 mV by whole cell patch clamp assay relative to control; format: cell-based; conditions: CHO cells expressing human KvLQT1/minK channel
[2] = molecular target: T2, Voltage-gated inwardly rectifying potassium channel KCNH2 (Homo sapiens, UniProt Q12809); experiment: Inhibition of human ERG expressed in HEK293 cells at holding potential of -80 mV by whole cell patch clamp assay; format: cell-based
[3] = Protein binding to human plasma at 30 to 1000 ng/ml after 2 to 6 hrs by LC-MS/MS based rapid equilibrium dialysis method; format: ADME, cell-free; conditions: read-out: PPB (converted)
[4] = Plasma concentration in human cardiac arrhythmia model; format: ADME, cell-free
[5] = molecular target: T1, KvLQT1/minK (Kv7.1/minK) potassium channel; experiment: Inhibition of human KvLQT1/minK channel expressed in CHO cells at 10 uM at holding potential of -80 mV by whole cell patch clamp assay relative to control; format: cell-based; conditions: CHO cells expressing human KvLQT1/minK channel
[6] = molecular target: Sodium channel protein type 5 subunit alpha (Homo sapiens, UniProt Q14524); experiment: Inhibition of human Nav1.5 channel expressed in HEK293 cells at holding potential of -70 mV by whole cell patch clamp assay; format: cell-based
[7] = Fraction unbound in human plasma at 30 to 1000 ng/ml after 2 to 6 hrs by LC-MS/MS based rapid equilibrium dialysis method; format: ADME, cell-free
[8] = molecular target: T2, Voltage-gated inwardly rectifying potassium channel KCNH2; experiment: Inhibition of human ERG expressed in HEK293 cells by patch clamp assay; format: cell-based

T1 sequence (P51787 whole entry): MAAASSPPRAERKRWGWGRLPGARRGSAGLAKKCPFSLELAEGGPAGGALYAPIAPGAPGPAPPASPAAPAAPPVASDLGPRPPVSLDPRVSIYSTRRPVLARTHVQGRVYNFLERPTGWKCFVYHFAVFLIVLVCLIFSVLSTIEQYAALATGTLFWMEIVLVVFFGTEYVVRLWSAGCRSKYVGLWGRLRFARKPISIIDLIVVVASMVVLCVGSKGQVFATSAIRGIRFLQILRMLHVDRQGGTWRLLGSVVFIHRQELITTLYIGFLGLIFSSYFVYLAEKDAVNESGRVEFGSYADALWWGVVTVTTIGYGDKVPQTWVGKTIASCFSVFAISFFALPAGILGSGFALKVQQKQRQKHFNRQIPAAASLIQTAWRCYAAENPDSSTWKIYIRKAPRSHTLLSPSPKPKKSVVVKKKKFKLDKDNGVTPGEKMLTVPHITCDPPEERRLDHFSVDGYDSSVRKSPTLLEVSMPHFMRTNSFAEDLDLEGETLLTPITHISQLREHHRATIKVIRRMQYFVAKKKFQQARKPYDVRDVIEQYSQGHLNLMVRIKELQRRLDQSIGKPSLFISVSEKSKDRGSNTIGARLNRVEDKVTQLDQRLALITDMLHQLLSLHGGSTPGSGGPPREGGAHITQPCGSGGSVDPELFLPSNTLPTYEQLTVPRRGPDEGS
T1 sequence (Q8N4C8 whole entry): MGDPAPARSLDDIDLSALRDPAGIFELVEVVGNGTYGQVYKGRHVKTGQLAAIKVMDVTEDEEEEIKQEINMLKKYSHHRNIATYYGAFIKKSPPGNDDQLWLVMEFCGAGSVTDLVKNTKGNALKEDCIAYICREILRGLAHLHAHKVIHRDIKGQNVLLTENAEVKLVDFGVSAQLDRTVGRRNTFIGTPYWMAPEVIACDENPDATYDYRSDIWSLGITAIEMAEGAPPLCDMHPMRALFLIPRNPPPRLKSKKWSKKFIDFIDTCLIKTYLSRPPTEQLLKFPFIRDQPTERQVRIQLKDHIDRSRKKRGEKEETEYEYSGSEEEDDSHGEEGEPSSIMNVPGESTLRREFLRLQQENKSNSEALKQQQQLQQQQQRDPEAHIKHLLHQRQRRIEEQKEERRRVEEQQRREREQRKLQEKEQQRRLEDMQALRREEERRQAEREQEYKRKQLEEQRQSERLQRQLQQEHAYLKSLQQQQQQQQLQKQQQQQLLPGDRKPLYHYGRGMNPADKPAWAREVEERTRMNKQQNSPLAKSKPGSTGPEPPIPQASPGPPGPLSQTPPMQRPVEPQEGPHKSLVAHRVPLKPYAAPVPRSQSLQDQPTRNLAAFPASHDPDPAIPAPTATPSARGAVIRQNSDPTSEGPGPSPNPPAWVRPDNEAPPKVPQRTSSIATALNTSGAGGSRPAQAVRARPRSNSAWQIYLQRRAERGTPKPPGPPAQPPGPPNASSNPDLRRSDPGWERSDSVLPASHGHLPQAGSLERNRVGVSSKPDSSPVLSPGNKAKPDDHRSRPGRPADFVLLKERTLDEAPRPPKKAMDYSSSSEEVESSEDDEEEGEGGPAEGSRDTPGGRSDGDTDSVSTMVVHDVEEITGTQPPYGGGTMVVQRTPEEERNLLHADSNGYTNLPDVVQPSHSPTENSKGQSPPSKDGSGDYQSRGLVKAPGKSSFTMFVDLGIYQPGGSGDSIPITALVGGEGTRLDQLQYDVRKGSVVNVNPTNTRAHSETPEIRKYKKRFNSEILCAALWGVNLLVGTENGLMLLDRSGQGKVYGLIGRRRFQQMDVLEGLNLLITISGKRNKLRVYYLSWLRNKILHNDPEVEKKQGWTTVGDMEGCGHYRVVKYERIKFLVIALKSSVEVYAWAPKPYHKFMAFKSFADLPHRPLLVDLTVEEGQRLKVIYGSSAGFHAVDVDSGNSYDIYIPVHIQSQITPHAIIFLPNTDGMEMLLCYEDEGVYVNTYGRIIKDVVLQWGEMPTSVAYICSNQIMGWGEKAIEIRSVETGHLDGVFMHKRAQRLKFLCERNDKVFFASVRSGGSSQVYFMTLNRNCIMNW
Sequence of Sodium channel protein type 5 subunit alpha (Q14524 whole entry): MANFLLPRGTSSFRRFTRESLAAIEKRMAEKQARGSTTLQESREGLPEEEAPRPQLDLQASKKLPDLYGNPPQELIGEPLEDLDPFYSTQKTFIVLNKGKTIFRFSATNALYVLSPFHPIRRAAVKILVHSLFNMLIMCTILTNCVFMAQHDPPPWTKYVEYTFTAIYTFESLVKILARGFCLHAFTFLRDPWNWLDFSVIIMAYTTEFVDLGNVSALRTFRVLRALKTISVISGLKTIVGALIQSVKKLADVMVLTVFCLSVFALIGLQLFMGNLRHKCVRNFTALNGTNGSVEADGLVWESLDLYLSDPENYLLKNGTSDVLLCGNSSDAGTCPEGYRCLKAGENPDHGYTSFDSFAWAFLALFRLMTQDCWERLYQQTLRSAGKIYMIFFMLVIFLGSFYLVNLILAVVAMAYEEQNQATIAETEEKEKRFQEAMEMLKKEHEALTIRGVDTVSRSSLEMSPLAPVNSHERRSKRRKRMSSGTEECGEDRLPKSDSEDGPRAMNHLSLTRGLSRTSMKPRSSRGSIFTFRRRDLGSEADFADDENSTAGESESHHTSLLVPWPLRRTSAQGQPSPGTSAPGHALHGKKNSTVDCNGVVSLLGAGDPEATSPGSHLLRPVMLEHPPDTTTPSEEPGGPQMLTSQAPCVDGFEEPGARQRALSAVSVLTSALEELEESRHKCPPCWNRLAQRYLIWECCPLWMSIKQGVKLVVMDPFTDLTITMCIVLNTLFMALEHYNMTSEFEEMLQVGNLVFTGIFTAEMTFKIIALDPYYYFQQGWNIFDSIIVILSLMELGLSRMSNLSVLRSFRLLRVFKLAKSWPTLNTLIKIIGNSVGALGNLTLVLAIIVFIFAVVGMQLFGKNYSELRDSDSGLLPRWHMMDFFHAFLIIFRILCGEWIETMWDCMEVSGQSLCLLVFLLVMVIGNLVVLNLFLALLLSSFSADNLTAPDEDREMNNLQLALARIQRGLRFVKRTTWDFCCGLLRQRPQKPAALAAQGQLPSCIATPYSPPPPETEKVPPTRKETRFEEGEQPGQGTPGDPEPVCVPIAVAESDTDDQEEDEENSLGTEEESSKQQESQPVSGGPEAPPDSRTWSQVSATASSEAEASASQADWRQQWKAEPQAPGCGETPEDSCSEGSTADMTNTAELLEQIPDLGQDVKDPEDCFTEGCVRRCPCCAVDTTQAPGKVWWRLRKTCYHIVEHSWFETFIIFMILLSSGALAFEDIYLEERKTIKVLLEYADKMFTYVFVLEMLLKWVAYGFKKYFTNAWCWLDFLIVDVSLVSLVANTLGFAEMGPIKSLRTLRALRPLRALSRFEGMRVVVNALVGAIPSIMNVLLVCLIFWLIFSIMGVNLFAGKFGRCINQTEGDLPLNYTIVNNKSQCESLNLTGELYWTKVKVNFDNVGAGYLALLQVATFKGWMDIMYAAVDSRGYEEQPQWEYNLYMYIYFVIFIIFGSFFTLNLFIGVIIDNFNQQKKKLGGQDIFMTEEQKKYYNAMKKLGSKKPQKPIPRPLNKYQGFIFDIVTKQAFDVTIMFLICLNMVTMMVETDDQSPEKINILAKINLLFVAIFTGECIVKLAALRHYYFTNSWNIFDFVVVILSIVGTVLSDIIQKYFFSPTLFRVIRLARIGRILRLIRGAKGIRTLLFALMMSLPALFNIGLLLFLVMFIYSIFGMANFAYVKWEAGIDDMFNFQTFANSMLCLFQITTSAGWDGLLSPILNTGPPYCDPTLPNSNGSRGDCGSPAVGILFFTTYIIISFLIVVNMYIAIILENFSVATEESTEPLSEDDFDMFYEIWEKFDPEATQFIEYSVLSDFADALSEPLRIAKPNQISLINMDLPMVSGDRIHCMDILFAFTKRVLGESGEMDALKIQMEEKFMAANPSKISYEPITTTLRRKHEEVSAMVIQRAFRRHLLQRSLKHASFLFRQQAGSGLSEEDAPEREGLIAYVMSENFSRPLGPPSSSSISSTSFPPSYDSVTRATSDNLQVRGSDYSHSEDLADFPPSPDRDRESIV

CNC(=O)C(CCN1CCC(O)(c2ccc(Cl)cc2)CC1)(c1ccccc1)c1ccccc1
inhibition at 0.03 µM (hERG (KCNH2)): 5.9%
inhibition at 1 µM [1]: 4%
IC50 [2]: 0.245 µM
fraction unbound [3]: 0.043
Cp [4]: 560 to 630 ng/mL
inhibition at 10 µM [5]: 23%
IC50 [6]: 0.483 µM
Cp(f) [7]: 48 to 54 nM

CN(C)C(=O)C(CCN1CCC(O)(c2ccc(Cl)cc2)CC1)(c1ccccc1)c1ccccc1 [LOPERAMIDE]
inhibition at 1 µM [1]: 17%
fraction unbound [3]: 0.03 to 0.05
Cp [4]: 76 to 120 ng/mL
inhibition (INH) [8]: 20%
inhibition at 10 µM [5]: 65%
IC50 [6]: 0.239 µM
Cp(f) [7]: 6.3 to 10 nM
